In patent US5128369A, “Arylalkylamine derivatives” (Kyowa Hakko Kogyo Co., Ltd., priority 1989, dated 1992):

What was measured:
PCA reaction = assay: 48 hour-homologous passive cutaneous anaphylaxis (PCA) test in rats (antiallergic effects); format: in vivo, rat (male Wistar); set-up: key to Anti-PCA MED (minimum effective dosage): NE: no effect; details: rat, oral, 1 hour before PCA challenge, inhibition 50% or higher in at least one of three animals; for minimal effective dose: read-out: Anti-PCA MED (minimum effective dosage)
Method: Antiallergic effects: Antiallergic effects of compounds were studied by passive cutaneous anaphylaxis (PCA) test in rats. Male Wistar rats weighing 180 to 220 g were used for collection of antiserum and Male Wistar rats weighing 120 to 140 g for PCA test. (A) Preparation of anti-EWA serum in rat Anti-EWA rat serum was prepared by the method of Stotland, et al [Can. J. Physiol. Pharmacol., 52, 1114, (1974)] as follows. That is, 1 mg of EWA, 20 mg of aluminium hydroxide gel and 0.5 ml of mixed vaccine of pertussis, diphtheria and tetanus were mixed, and the mixture was subcutaneously injected in four foodpads of rats. After 14 days, the blood of sensitized rats was collected from the carotid artery. The serum was separated by centrifugation from collected blood, and stored at -80° C. The 48 hour homologous PCA titer of the serum was 1 :64. (B) Effects on 48 hour-homologous PCA tests in rats Three rats in each group were passively sensitized with 8 hold diluted anti-EWA serum (0.05 ml) intradermally injected in two sites of shaved dosal area of rats. After 47 hours, the test compound or its solvent (saline or CMC solution) was orally administrated, and 1 hour thereafter, PCA reaction was induced by intravenous administration of 1% Evan's blue in saline (0.5 ml/100 g) containing 2 mg of EWA. After 30 minutes, animals were sacrificed by bleeding and dorsal skin was stripped to determine the leakage of dye at blue spots, by the method of Katayama et al. [Microbiol. Immunol., 22, 89 (1978)]. The blue-dyed spots were dissected and placed in a test tube containing 1 ml of 1N sodium hydroxide and incubated at 37° C. for 48 hours. Then, 9 ml of a mixture of 0.6N phosphate:acetone (5:13) was added thereto. After shaking, the mixture was centrifuged at 2500 rpm for 10 minutes. A supernatant was separated, and extravasated dye in the supernatant was determined photometrically at 620 nm. Inhibition percent was calculated as follows: [formula]

[1] = test system: tracheae (zig-zag strips from passively sensitized guinea pigs); assay: passive Schultz-Dale reaction (bronchodilatory effects), relaxation of antigen-contracted tracheal strips; set-up: species or system guinea pig (male Hartley); details: Cavia porcellus; EWA (1 μg/ml)-induced contraction, guinea pig trachea, 37° C., cumulative addition; read-out: Bronchodilatory effect IC50 (concentration to produce 50% relaxation)
Method: Effects on passive Schultz-Dale reaction (bronchodilatory effects)
After 24 hours, the guinea pigs were stunned and exsanguinated, and then tracheae were removed. The zig-zag strips of the tracheae were prepared by the method of Emmerson, et al. [J. Pharm. […] After the contraction reached stable plateau, the compounds were cumulatively added in order to get concentration-relaxation curves.

dd-mice = assay: Acute toxicity (minimum lethal dose); format: in vivo; details: male dd-mice, mortality for seven days
Method: The compounds were orally administrated (po) or intraperitoneally administrated (ip) to three male dd-mice weighing 20±1 g. Minimum lethal dose (MLD) was determined by observing the mortality for seven days after the administration.

Row | Compound | minimal effective dose (PCA reaction) [mg/kg] | IC50 [1] [nM] | Acute Toxicity MLD ip (minimum lethal dose) (dd-mice) [mg/kg] | Acute Toxicity MLD po (minimum lethal dose) (dd-mice) [mg/kg] | Anti-PCA MED (minimum effective dosage) (PCA reaction)
1 | CC(CC1OCCc2ccccc21)NCC(O)c1ccc(O)cc1 (centres unmarked) [Compound 1, 1-(4-Hydroxyphenyl)-2-[2-(isochroman-1-yl)-1-methylethylamino]ethanol] | 10 | 12.8 | > 100 | > 300 | –
2 | CC(CC1OCCc2ccccc21)NC[C@H](O)c1ccc(O)cc1 (some centres unmarked) [Compound 2, (IR)-1-(4-hydroxyphenyl)-2-[2-(isochroman-1-yl)-1-methylethylamino]ethanol] | 10 | 0.612 | > 100 | > 300 | –
3 | CC(CC1OCCc2ccccc21)NC[C@@H](O)c1ccc(O)cc1 (stereo partly drawn) [Compound 3, (1S)-1-(4-hydroxyphenyl)-2-[2-(isochroman-1-yl)-1-methylethylamine]ethanol] | – | 2.76 | – | – | NE
4 | CC(CC1OCCc2ccccc21)NCC(O)c1ccccc1 (centres unmarked) [Compound 4, 2-[2-(Isochroman-1-yl)-1-methylethylamino]-1-phenylethanol] | 10 | 260 | 100 | 200 | –
5 | CC(CC1OCCc2ccccc21)NC[C@H](O)c1ccccc1 (stereo partly drawn) [Compound 5, (1R)-2-[2-(Isochroman-1-yl)-1-methylethylamino]-1-phenylethanol] | 1 | 19 | 25 | 200 | –
6 | CC(CC1OCCc2ccccc21)NC[C@@H](O)c1ccccc1 (stereo partly drawn) [Compound 6, (1S)-2-[2-(Isochroman-1-yl)-1-methylethylamino]-1-phenylethanol] | – | 12000 | > 100 | 200 | NE
7 | CC(CC1OCCc2ccccc21)NCC(O)c1cccc(O)c1 (centres unmarked) [Compound 7, 1-(3-Hydroxyphenyl)-2-[2-(isochroman-1-yl)-1-methylethylamino]ethanol] | 10 | 11 | 100 | 300 | –
8 | CC(CC1OCCc2ccccc21)NCC(O)c1ccccc1O (centres unmarked) [Compound 8, 1-(2-Hydroxyphenyl)-2-[2-(isochroman-1-yl)-1-methylethylamino]ethanol] | – | 53 | 100 | 200 | NE
9 | CC(CC1OCCc2ccccc21)NCC(O)c1cc(O)cc(O)c1 (centres unmarked) [Compound 9, 1-(3,5-Dihydroxyphenyl)-2-[2-(isochroman-1-yl)-1-methylethylamino]ethanol] | – | 1.18 | – | 200 | –
10 | COc1ccc(C(O)CNC(C)CC2OCCc3ccccc32)cc1 (centres unmarked) [Compound 10, 2-[2-(Isochroman-1-yl)-1-methylethylamino]-1-(4-methoxyphenyl)ethanol] | 10 | 81 | 100 | 200 | –
11 | CC(CC1OCCc2ccccc21)NCC(O)c1ccc(F)cc1 (centres unmarked) [Compound 16, 1-(4-Fluorophenyl)-2-[2-(isochroman-1-yl)-1-methylethylamino]ethanol] | – | 61.4 | > 100 | 300 | NE
12 | CC(CC1OCCc2ccccc21)NCC(O)c1ccc(Cl)cc1 (centres unmarked) [Compound 17, 1-(4-Chlorophenyl)-2-[2-(isochroman-1-yl)-1-methylethylamino]ethanol] | 1 | 3400 | 100 | 100 | –
13 | CC(CC1OCCc2ccccc21)NCC(O)c1cccs1 (centres unmarked) [Compound 20, 2-[2-(Isochroman-1-yl)-1-methylethylamino]-1-thienylethanol] | – | 36.1 | > 100 | > 300 | NE
14 | Oc1ccc(C(O)CNCCC2OCCc3ccccc32)cc1 (centres unmarked) [Compound 23, 1-(4-Hydroxyphenyl)-2-[2-(isochroman-1-yl)ethylamino]ethanol] | – | 8.76 | – | – | –
15 | CC(CC1OCCc2ccccc21)NC(C)C(O)c1ccc(O)cc1 (centres unmarked) [Compound 24, 1-(4-Hydroxyphenyl)-2-[2-(isochroman-1-yl)-1-methylethylamino]-1-propanol] | – | 1600 | > 100 | > 300 | NE
16 | COC(CNC(C)CC1OCCc2ccccc21)c1ccc(O)cc1 (centres unmarked) [Compound 25, 2-(4-Hydroxyphenyl)-N-[2-(isochroman-1-yl)-1-methylethylamino]-2-methoxyethylamine] | – | 2.4 | – | – | NE
17 | CC(CC1OCCc2ccccc21)NCC(O)Cc1ccccc1 (centres unmarked) [Compound 26, 1-[2-(Isochroman-1-yl)-1-methylethylamino]-3-phenyl-2-propanol] | – | 9040 | – | – | NE
18 | CC(CC1CCCc2ccccc21)NCC(O)c1ccc(O)cc1 (centres unmarked) [Compound 30, 1-(4-Hydroxyphenyl)-2-[2-(1,2,3,4-tetrahydro-1-naphthyl)-1-methylethylamino]ethanol] | 10 | 1.95 | > 100 | > 300 | –
19 | CC(CC1c2ccccc2CCN1C)NCC(O)c1ccc(O)cc1 (centres unmarked) [Compound 31, 1-(4-Hydroxyphenyl)-2-[1-methyl-2-(2-methyl-1,2,3,4-tetrahydroisoquinolin-1-yl)ethylamino]ethanol] | – | 85 | > 100 | > 300 | NE
